Results published in the supplement of paper PMC11061612.

Tests used:
Assay in all cases: combination Emax (second highest fraction inhibited in the dose matrix, 72 h); higher = more inhibition; extreme values may be limits of the assay
[1] = system: A375 (Melanoma)
In short: (§1)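 Cell lines in DMEM/F12 or RPMI with 10% FBS were plated in 1536-well plates, held 24 hours at 37°C, 5% CO2, then given two-drug dose matrices for 72 hours (DMSO typically 0.2%). Viability was read by CellTiter-Glo 2.0 luminescence and scaled as inhibition from 0 (vehicle wells) to 1 (blank wells). Combination Emax is the second-highest inhibition in the matrix; Bliss excess is observed combination effect minus expected EA + EB − EA·EB, EA and EB being single-agent effects.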

[2] = system: ATN-1 (T-Lymphoblastic Leukemia)
In short: as §1

[3] = system: BT-474 (Breast Carcinoma)
In short: as §1

[4] = system: COR-L105 (Lung Adenocarcinoma)
In short: as §1

[5] = system: Daudi (Burkitt's Lymphoma)
In short: as §1

[6] = system: GRANTA-519 (B-Cell Non-Hodgkin's Lymphoma)
In short: as §1

[7] = system: HT-1197 (Bladder Carcinoma)
In short: as §1

[8] = system: IGROV-1 (Ovarian Carcinoma)
In short: as §1

[9] = system: JJN-3 (Plasma Cell Myeloma)
In short: as §1

[10] = system: JURL-MK1 (Chronic Myelogenous Leukemia)
In short: as §1

[11] = system: MG-63 (Osteosarcoma)
In short: as §1

[12] = system: NCI-H2009 (Lung Adenocarcinoma)
In short: as §1

[13] = system: NCI-H2170 (Squamous Cell Lung Carcinoma)
In short: as §1

[14] = system: NCI-H2452 (Mesothelioma)
In short: as §1

[15] = system: OCI-M1 (Acute Myeloid Leukemia)
In short: as §1

[16] = system: RPMI-8402 (T-Lymphoblastic Leukemia)
In short: as §1

[17] = system: RS4-11 (B-Lymphoblastic Leukemia)
In short: as §1

[18] = system: SBC-3 (Small Cell Lung Carcinoma)
In short: as §1

[19] = system: SNU-1 (Gastric Carcinoma)
In short: as §1

[20] = system: SUP-HD1 (Hodgkin's Lymphoma)
In short: as §1

SMILES	combination Emax [1]	combination Emax [2]	combination Emax [3]	combination Emax [4]	combination Emax [5]	combination Emax [6]	combination Emax [7]	combination Emax [8]	combination Emax [9]	combination Emax [10]	combination Emax [11]	combination Emax [12]	combination Emax [13]	combination Emax [14]	combination Emax [15]	combination Emax [16]	combination Emax [17]	combination Emax [18]	combination Emax [19]	combination Emax [20]
CN(C)CCCOc1ccc(-c2ccc3ncc4c(c3c2)n(C2CCOCC2)c(=O)n4C)cn1 [AZD0156] + C=CCn1c(=O)c2cnc(Nc3ccc(N4CCN(C)CC4)cc3)nc2n1-c1cccc(C(C)(C)O)n1 [AZD1775] (first compound max 1 µM, partner max 1 µM)	0.535	1	0.195	0.418	0.781	0.816	0.486	0.769	0.661	0.989	0.526	0.557	0.7	0.589	0.869	1	0.881	0.442	0.623	0.836
CN(C)CCCOc1ccc(-c2ccc3ncc4c(c3c2)n(C2CCOCC2)c(=O)n4C)cn1 [AZD0156] + CCN(CCO)CCCOc1ccc2c(Nc3cc(CC(=O)Nc4cccc(F)c4)[nH]n3)ncnc2c1 [AZD2811] (first compound max 1 µM, 7x7, partner max 1 µM)	0.33	0.835	0.0605	0.167	0.497	0.364	0.203	0.539	0.404	0.554	0.285	0.189	0.656	0.221	0.222	0.889	0.979	0.409	0.434	0.48
CN(C)CCCOc1ccc(-c2ccc3ncc4c(c3c2)n(C2CCOCC2)c(=O)n4C)cn1 [AZD0156] + C[C@@H]1COCCN1C2=NC(=NC(=C2)C3(CC3)[S@](=N)(=O)C)C4=C5C=CNC5=NC=C4 [AZD6738] (first compound max 1 µM, 7x7, partner max 10 µM)	0.815	1	0.198	0.472	0.848	0.82	0.526	0.724	0.938	0.998	0.706	0.459	0.799	0.559	0.982	0.983	0.943	0.798	0.769	0.785
CN(C)CCCOc1ccc(-c2ccc3ncc4c(c3c2)n(C2CCOCC2)c(=O)n4C)cn1 [AZD0156] + O=C(c1cc(Cc2n[nH]c(=O)c3ccccc23)ccc1F)N1CCN(C(=O)C2CC2)CC1 [Olaparib] (first compound max 3 µM, partner max 3 µM)	0.29	0.393	0.27	0.358	0.48	0.151	0.121	0.574	0.213	0.431	0.548	0.436	0.437	0.38	0.534	0.666	0.497	0.465	0.182	0.166
C=CCn1c(=O)c2cnc(Nc3ccc(N4CCN(C)CC4)cc3)nc2n1-c1cccc(C(C)(C)O)n1 [AZD1775] + C[C@@H]1COCCN1C2=NC(=NC(=C2)C3(CC3)[S@](=N)(=O)C)C4=C5C=CNC5=NC=C4 [AZD6738] (first compound max 1 µM, partner max 10 µM)	0.766	1	0.316	0.595	0.901	0.826	0.592	0.827	0.832	1	0.854	0.799		0.747	0.969	1	0.994	0.889	0.817	0.887
C=CCn1c(=O)c2cnc(Nc3ccc(N4CCN(C)CC4)cc3)nc2n1-c1cccc(C(C)(C)O)n1 [AZD1775] + O=C(c1cc(Cc2n[nH]c(=O)c3ccccc23)ccc1F)N1CCN(C(=O)C2CC2)CC1 [Olaparib] (first compound max 1 µM, partner max 10 µM)	0.476	1	0.237	0.436	0.84	0.804	0.468	0.769	0.645	0.994	0.548	0.752	0.58	0.574	0.869	1	0.952	0.621	0.569	0.871
